Source: publication PMC7051184, “C9orf72 arginine-rich dipeptide repeat proteins disrupt karyopherin-mediated nuclear import” (eLife, 2020)
Where a SMILES comes first, the peptide text is derived from it.

Columns and labels:
Nsp1(497-609) = assay: Bead halo assay, GST-Nsp1(497-609) FxFG domain; format: binding, S. cerevisiae; conditions: AF488-labeled
Procedure: The expression of GST- Nsp1(497-609) in BL21(DE3) cells grown in LB media was induced at OD600nm = 0.4–0.6, followed by incubation at 37°C for 3–5 hr. The GST-tagged S. cerevisiae pGEX-Nup100(1-307), Nup100(1-610), Nup116(348-458) and Nup116(348-458)F > A were expressed in T7 Shuffle cells (NEB) that were grown in Dynamite media ([Taylor et al., 2017]) until OD600nm = 0.9 before induction with IPTG at 37°C for 3 hr. All the GST-tagged Nup fragments were purified using glutathione-sepharose affinity chromatography, as described for the GST-GFP-NLS above, and dialyzed into PBS before storage.
The bead halo assay was carried out as described with minor modifications ([Patel and Rexach, 2008]), using […] polystyrene beads coated with neutravidin (for biotinylated proteins) or glutathione (for GST-fusion proteins) (Spherotech, Lake Forest, IL). Beads were coated overnight at 4°C at saturating concentrations per manufacturers’ instructions and rinsed 2x in binding buffer (20 mM HEPES [pH 7.4], 150 mM KOAc, 2 mM Mg(OAc)2, 1 mM DTT, 0.1% Tween-20). Immediately prior to the assay, fluorescent bait proteins and beads were combined with 4x assay buffer (40 mM EDTA, 40 mg/ml BSA, 500 mM NaCl, and 0.2% Tween) to a total of 40 µL per well, in optical glass-bottom 96-well plates (Cellvis, Mountain View, CA). […]

RCC1 = assay: DPR aggregation assay and western blot, RCC1 (negative control); format: biochemical, human; conditions: 100 µM 10mer in 2.5 mg/ml HEK lysate, normalized to untreated HEK
Procedure: (§1) Supernatant and pellet fractions (for all 5 DPRs, and control/buffer only) were prepared as in the nuclear transport assays, by adding 100 µM 10mers to 2.5 mg/ml HEK lysate in 100 µL TRB. Supernatants were boiled in Laemmli (BioRad) for 5 min. Pellets were boiled for 15 min followed by sonication in order to fully disperse aggregates for SDS-PAGE. Equal volumes of supernatant and pellet fractions were run on 4–12% Bolt Bis-Tris Plus gels (ThermoFisher), transferred to nitrocellulose membrane using an iBlot2 dry blotting system (ThermoFisher). Protein loading was analyzed by BLOT-Faststain (G-biosciences, St. Louis, MO), according to the manufacterers’ instructions. For immunodetection, membranes were blocked with 5% non-fat milk in TBST and probed by sequential incubation with the primary antibodies as detailed in the table below. Detection was by HRP-conjugated secondary antibodies/chemiluminescence using an ImageQuant LAS 4000 system (GE, Chicago, IL). To permit sequential probing of membranes without stripping, signals were quenched by incubation with prewarmed 30% H20_2 for 20 min ([Sennepin et al., 2009]). Band intensities were measured by ImageQuant software. For pellet vs. supernatant fractions, all were expressed as percent untreated control. For blots in Figure 1E, samples were run on 4–20% SDS PAGE minigels (ThermoFisher) and blotted to PVDF membranes (Immun-Blot PVDF, Bio-Rad) using the Bio-Rad TransBlot Turbo apparatus, and probed as above. The chemiluminescence signal was captured with a Bio-Rad ChemiDoc XRS+ digital imaging system.

[1] = DPR aggregate formation in HEK lysate (pellet vs. supernatant, total protein); format: biochemical, human; conditions: 100 µM
Procedure: as §1, with “For blots in Figure 1E, samples were run on 4–20% SDS PAGE minigels (ThermoFisher) and blotted to PVDF membranes (Immun-Blot PVDF, Bio-Rad) using the Bio-Rad TransBlot Turbo apparatus, and probed as above. The chemiluminescence signal was captured with a Bio-Rad ChemiDoc XRS+ digital imaging system.” left out

TDP-43 = assay: DPR aggregation assay and western blot, TDP-43; format: biochemical, human; conditions: for TDP43 band density, % untr control: Fig 5-suppl 3C, normalized to untreated HEK on same membrane; for TDP43 band density, % control: normalized to untreated HEK cells on the same membrane
Procedure: as §1

Nup98 = assay: DPR aggregation assay and western blot, Nup98; format: biochemical, human; conditions: 100 µM 10mer in 2.5 mg/ml HEK lysate, normalized to untreated HEK
Procedure: as §1

importin β = assay: DPR aggregation assay and western blot, ImpB; format: biochemical, human; conditions: for ImpB band density, Pellet / ImpB band density, Supernatant: 100 µM 10mer in 2.5 mg/ml HEK lysate, normalized to untreated HEK; for ImpB band density, % untr control: Fig 5-suppl 3C, normalized to untreated HEK on same membrane;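 for ImpB band density, % untr control: RNA rows contain added 20 µg total HEK RNA while no-RNA rows lack it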
Procedure: as §1

RanGAP1 = assay: DPR aggregation assay and western blot, RanGAP1; format: biochemical, human; conditions: for RanGAP1 band density, Pellet / RanGAP1 band density, Supernatant: 100 µM 10mer in 2.5 mg/ml HEK lysate, normalized to untreated HEK; for RanGAP1 band density, % untr control: Fig 5-suppl 3C, normalized to untreated HEK on same membrane
Procedure: as §1

transportin-1 (Tnpo1) = assay: DPR aggregation assay and western blot, Tnpo1; format: biochemical, human; conditions: for Tnpo1 band density, Pellet / Tnpo1 band density, Supernatant: 100 µM 10mer in 2.5 mg/ml HEK lysate, normalized to untreated HEK; for TNPO1 band density, % untr control: Fig 5-suppl 3C, normalized to untreated HEK on same membrane;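 for TNPO1 band density, % untr control: RNA rows contain added 20 µg total HEK RNA while no-RNA rows lack it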
Procedure: as §1

importin α = assay: DPR aggregation assay and western blot, ImpA; format: biochemical, human; conditions: for ImpA band density, Pellet / ImpA band density, Supernatant: 100 µM 10mer in 2.5 mg/ml HEK lysate, normalized to untreated HEK; for ImpA band density, % untr control: Fig 5-suppl 3C, normalized to untreated HEK on same membrane;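 for ImpA band density, % untr control: RNA rows contain added 20 µg total HEK RNA while no-RNA rows lack it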
Procedure: as §1

Rps25 = assay: DPR aggregation assay and western blot, Rps25; format: biochemical, human; conditions: Fig 5-suppl 3C, normalized to untreated HEK on same membrane;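 note: RNA rows contain added 20 µg total HEK RNA while no-RNA rows lack it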
Description: Supplement elife-51685-fig5-data1.xlsx, sheet "Figure 5-figure suppl 3" | column: Rps25

[2] = Pellet, no RNA (Untreated), blot 1
[3] = Pellet, no RNA (Untreated), blot 2
[4] = Supernatant, no RNA (Untreated), blot 1
[5] = Supernatant, no RNA (Untreated), blot 2

## N=C(N)NCCC[C@H](NC(=O)[C@@H]1CCCN1C(=O)[C@H](CCCNC(=N)N)NC(=O)[C@@H]1CCCN1C(=O)[C@H](CCCNC(=N)N)NC(=O)[C@@H]1CCCN1C(=O)[C@H](CCCNC(=N)N)NC(=O)[C@@H]1CCCN1C(=O)[C@H](CCCNC(=N)N)NC(=O)[C@@H]1CCCN1C(=O)[C@H](CCCNC(=N)N)NC(=O)[C@@H]1CCCN1C(=O)[C@H](CCCNC(=N)N)NC(=O)[C@@H]1CCCN1C(=O)[C@H](CCCNC(=N)N)NC(=O)[C@@H]1CCCN1C(=O)[C@H](CCCNC(=N)N)NC(=O)[C@@H]1CCCN1C(=O)[C@H](CCCNC(=N)N)NC(=O)[C@@H]1CCCN1)C(=O)O [PR10] (H-PRPRPRPRPRPRPRPRPRPR-OH; N-terminus and C-terminus assumed)
Nsp1(497-609)
  FG-binding with added unlabeled importin β: FG-binding could be augmented
RCC1; Blot 1
  RCC1 band density, Pellet: 27.7 % control
  RCC1 band density, Supernatant: 103.7 % control
RCC1; Blot 2
  RCC1 band density, Pellet: 109.0 % control
  RCC1 band density, Supernatant: 124.4 % control
[1]
  Depletion of NCT proteins from the supernatant: not substantially depleted from the supernatant
TDP-43; Pellet, RNA, blot 1
  TDP43 band density, % untr control: 155.77%
TDP-43; Pellet, RNA, blot 2
  TDP43 band density, % untr control: 157.99%
TDP-43; [2]
  TDP43 band density, % untr control: 180.16%
TDP-43; [3]
  TDP43 band density, % untr control: 165.43%
TDP-43; Supernatant, RNA, blot 1
  TDP43 band density, % untr control: 71.23%
TDP-43; Supernatant, RNA, blot 2
  TDP43 band density, % untr control: 80.31%
TDP-43; [4]
  TDP43 band density, % untr control: 41.29%
TDP-43; [5]
  TDP43 band density, % untr control: 36.83%
TDP-43; Pellet, Blot 1
  TDP43 band density, % control: 424.3 % control
TDP-43; Pellet, Blot 2
  TDP43 band density, % control: 185.6 % control
TDP-43; Supernatant, Blot 1
  TDP43 band density, % control: 54.8 % control
TDP-43; Supernatant, Blot 2
  TDP43 band density, % control: 45.9 % control
Nup98; Blot 1
  Nup98 band density, Pellet: 109.9 % control
  Nup98 band density, Supernatant: 57.2 % control
Nup98; Blot 2
  Nup98 band density, Pellet: 150.1 % control
  Nup98 band density, Supernatant: 67.5 % control
Importin β; Blot 1
  ImpB band density, Pellet: 818.3 % control
  ImpB band density, Supernatant: 89.3 % control
Importin β; Blot 2
  ImpB band density, Pellet: 483.8 % control
  ImpB band density, Supernatant: 77.0 % control
Importin β; Pellet, RNA, blot 1
  ImpB band density, % untr control: 176.94%
Importin β; Pellet, RNA, blot 2
  ImpB band density, % untr control: 208.79%
Importin β; [2]
  ImpB band density, % untr control: 231.77%
Importin β; [3]
  ImpB band density, % untr control: 273.94%
Importin β; Supernatant, RNA, blot 1
  ImpB band density, % untr control: 95.64%
Importin β; Supernatant, RNA, blot 2
  ImpB band density, % untr control: 121.54%
Importin β; [4]
  ImpB band density, % untr control: 76.39%
Importin β; [5]
  ImpB band density, % untr control: 117.49%
RanGAP1; Blot 1
  RanGAP1 band density, Pellet: 413.6 % control
  RanGAP1 band density, Supernatant: 76.6 % control
RanGAP1; Blot 2
  RanGAP1 band density, Pellet: 481.7 % control
  RanGAP1 band density, Supernatant: 84.2 % control
RanGAP1; Pellet, RNA, blot 1
  RanGAP1 band density, % untr control: 309.83%
RanGAP1; Pellet, RNA, blot 2
  RanGAP1 band density, % untr control: 267.45%
RanGAP1; [2]
  RanGAP1 band density, % untr control: 288.68%
RanGAP1; [3]
  RanGAP1 band density, % untr control: 278.19%
RanGAP1; Supernatant, RNA, blot 1
  RanGAP1 band density, % untr control: 115.69%
RanGAP1; Supernatant, RNA, blot 2
  RanGAP1 band density, % untr control: 95.48%
RanGAP1; [4]
  RanGAP1 band density, % untr control: 62.58%
RanGAP1; [5]
  RanGAP1 band density, % untr control: 76.25%
transportin-1 (Tnpo1); Blot 1
  Tnpo1 band density, Pellet: 258.1 % control
  Tnpo1 band density, Supernatant: 76.9 % control
transportin-1 (Tnpo1); Blot 2
  Tnpo1 band density, Pellet: 476.3 % control
  Tnpo1 band density, Supernatant: 65.0 % control
transportin-1 (Tnpo1); Pellet, RNA, blot 1
  TNPO1 band density, % untr control: 162.49%
transportin-1 (Tnpo1); Pellet, RNA, blot 2
  TNPO1 band density, % untr control: 169.58%
transportin-1 (Tnpo1); [2]
  TNPO1 band density, % untr control: 284.53%
transportin-1 (Tnpo1); [3]
  TNPO1 band density, % untr control: 326.13%
transportin-1 (Tnpo1); Supernatant, RNA, blot 1
  TNPO1 band density, % untr control: 75.09%
transportin-1 (Tnpo1); Supernatant, RNA, blot 2
  TNPO1 band density, % untr control: 93.47%
transportin-1 (Tnpo1); [4]
  TNPO1 band density, % untr control: 65.77%
transportin-1 (Tnpo1); [5]
  TNPO1 band density, % untr control: 83.87%
Importin α; Blot 1
  ImpA band density, Pellet: 170.0 % control
  ImpA band density, Supernatant: 78.1 % control
Importin α; Blot 2
  ImpA band density, Pellet: 198.7 % control
  ImpA band density, Supernatant: 90.0 % control
Importin α; Pellet, RNA, blot 1
  ImpA band density, % untr control: 171.92%
Importin α; Pellet, RNA, blot 2
  ImpA band density, % untr control: 154.07%
Importin α; [2]
  ImpA band density, % untr control: 177.99%
Importin α; [3]
  ImpA band density, % untr control: 181.79%
Importin α; Supernatant, RNA, blot 1
  ImpA band density, % untr control: 85.78%
Importin α; Supernatant, RNA, blot 2
  ImpA band density, % untr control: 111.13%
Importin α; [4]
  ImpA band density, % untr control: 79.74%
Importin α; [5]
  ImpA band density, % untr control: 105.29%
Rps25; Pellet, RNA, blot 1
  Rps25 band density, % untr control: 302.37%
Rps25; Pellet, RNA, blot 2
  Rps25 band density, % untr control: 467.96%
Rps25; [2]
  Rps25 band density, % untr control: 306.71%
Rps25; [3]
  Rps25 band density, % untr control: 525.42%
Rps25; Supernatant, RNA, blot 1
  Rps25 band density, % untr control: 12.19%
Rps25; Supernatant, RNA, blot 2
  Rps25 band density, % untr control: 16.30%
Rps25; [4]
  Rps25 band density, % untr control: 0.89%
Rps25; [5]
  Rps25 band density, % untr control: 1.06%
